As a reminder, the IC50 is the concentration needed to halve the response being measured. The low end stands for greater potency, the high end for weaker potency.

These results are taken from US10759793B2, “2-(pyrazolopyridin-3-yl)pyrimidine derivatives as JAK inhibitors” (ALMIRALL, S.A., priority 2015, dated 2020).

Holding throughout (type): biochemical
One assay deals with JAK1 (Homo sapiens (Human), UniProt P23458). Nature of the assay: In vitro JAK kinase assay (TR-FRET), JAK1. Particulars: catalytic domain aa 850-1154, GST-fusion; ATP 3 μM; peptide 60 nM; 30 minutes at room temperature. The protocol: (§1) Compounds were screened for their ability to inhibit JAK1, JAK2 and JAK3 using the assays as indicated below. […] The enzymatic activity was assayed using as substrate a biotinylated peptide, poly (GT)-Biotin (CisBio). […] The degree of phosphorylation was detected by TR-FRET (time-resolved fluorescence energy transfer). […] The enzymatic reactions took place for 30 minutes at room temperature. […] Incubate for 3 h and read on Victor 2V spectrofluorometer (Perkin Elmer) set to read fluorescence resonance energy transfer.

Another assay addresses JAK3 (Homo sapiens (Human), UniProt P52333). Nature of the assay: In vitro JAK kinase assay (TR-FRET), JAK3. As to conditions: catalytic domain aa 795-1124, GST-fusion; ATP 0.6 μM; peptide 140 nM; 30 minutes at room temperature. The protocol:
as §1

For another assay, the target named is JAK2 (Homo sapiens (Human), UniProt O60674). Kind of assay: In vitro JAK kinase assay (TR-FRET), JAK2. As to conditions: catalytic domain aa 826-1132, GST-fusion; ATP 0.2 μM; peptide 20 nM; 30 minutes at room temperature. On the procedure:
as §1
On the technique in general: Time-resolved FRET reads energy transfer from a long-lived donor to a nearby acceptor.

Chain of JAK1 (P23458 850-1154): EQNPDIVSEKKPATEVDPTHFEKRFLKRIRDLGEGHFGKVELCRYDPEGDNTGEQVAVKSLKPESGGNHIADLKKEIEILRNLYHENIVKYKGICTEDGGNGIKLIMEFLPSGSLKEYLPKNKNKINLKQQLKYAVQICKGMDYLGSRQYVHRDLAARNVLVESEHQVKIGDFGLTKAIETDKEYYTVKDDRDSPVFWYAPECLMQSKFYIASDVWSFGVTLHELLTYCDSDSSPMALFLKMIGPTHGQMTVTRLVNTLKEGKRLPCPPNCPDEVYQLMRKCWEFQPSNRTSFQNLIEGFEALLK
Chain of JAK2 (O60674 826-1132): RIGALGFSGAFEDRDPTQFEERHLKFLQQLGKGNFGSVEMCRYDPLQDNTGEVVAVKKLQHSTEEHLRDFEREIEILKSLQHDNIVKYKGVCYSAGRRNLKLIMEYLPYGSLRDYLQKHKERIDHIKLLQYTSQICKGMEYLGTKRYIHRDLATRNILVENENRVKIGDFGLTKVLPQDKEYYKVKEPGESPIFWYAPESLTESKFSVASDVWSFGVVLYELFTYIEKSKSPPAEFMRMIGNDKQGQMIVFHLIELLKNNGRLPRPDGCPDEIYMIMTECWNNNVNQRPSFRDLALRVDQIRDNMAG
Chain of JAK3 (P52333 795-1124): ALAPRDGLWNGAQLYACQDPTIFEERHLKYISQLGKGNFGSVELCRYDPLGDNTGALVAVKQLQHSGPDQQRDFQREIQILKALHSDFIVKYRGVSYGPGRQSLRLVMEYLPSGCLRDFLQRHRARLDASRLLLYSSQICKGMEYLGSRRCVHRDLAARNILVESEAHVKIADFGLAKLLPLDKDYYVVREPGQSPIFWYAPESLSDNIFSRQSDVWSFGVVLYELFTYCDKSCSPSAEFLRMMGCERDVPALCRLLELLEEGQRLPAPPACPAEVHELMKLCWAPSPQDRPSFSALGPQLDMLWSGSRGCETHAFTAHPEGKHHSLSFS

As to `CCOCCOc1nc(-c2cnn3ccccc23)nc(N[C@@H]2CCCN(C(=O)CC#N)C2)c1F` [Example 16, 3-((3R)-3-{[6-(2-ethoxyethoxy)-5-fluoro-2-pyrazolo[1,5-a]pyridin-3-ylpyrimidin-4-yl]amino}piperidin-1-yl)-3-oxopropanenitrile], the figures for the IC50 against JAK1, against JAK3 and at JAK2 were 4 nM, 1 nM and 0.7 nM, respectively.
Take `N#CCC(=O)N1CCC[C@@H](Nc2nc(-c3cnn4ccccc34)nc(-c3ccc(CO)cc3)c2F)C1` [Example 17, 3-[(3R)-3-({5-Fluoro-6-[4-(hydroxymethyl)phenyl]-2-pyrazolo[1,5-a]pyridin-3-ylpyrimidin-4-yl}amino)piperidin-1-yl]-3-oxopropanenitrile]: the results for the IC50 on JAK1, against JAK3 and against JAK2 were 2 nM, 1 nM and 0.6 nM, respectively.
On to `N#CCC(=O)N1CCC[C@@H](Nc2nc(-c3cnn4ccccc34)nc(-c3ccc(N)nc3)c2F)C1` [Example 18, 3-((3R)-3-{[6-(6-Aminopyridin-3-yl)-5-fluoro-2-pyrazolo[1,5-a]pyridin-3-ylpyrimidin-4-yl]amino}piperidin-1-yl)-3-oxopropanenitrile], for which the figures for the IC50 on JAK1, on JAK3 and against JAK2 were 1 nM, 2 nM and 0.6 nM, respectively.
`COc1ccc(-c2nc(-c3cnn4ccccc34)nc(N[C@@H]3CCCN(C(=O)CC#N)C3)c2F)cn1` [Example 19, 3-((3R)-3-{[5-fluoro-6-(6-methoxypyridin-3-yl)-2-pyrazolo[1,5-a]pyridin-3-ylpyrimidin-4-yl]amino}piperidin-1-yl)-3-oxopropanenitrile]: the IC50 against JAK1 worked out at 2 nM; against JAK3, 2 nM; against JAK2, 0.3 nM.
With `Cc1cc(-c2nc(-c3cnn4ccccc34)nc(N[C@@H]3CCCN(C(=O)CC#N)C3)c2F)ccn1` [Example 20, 3-((3R)-3-{[5-fluoro-6-(2-methylpyridin-4-yl)-2-pyrazolo[1,5-a]pyridin-3-ylpyrimidin-4-yl]amino}piperidin-1-yl)-3-oxopropanenitrile], the IC50 on JAK1 was found to be 1 nM; on JAK3 it was 1 nM; at JAK2 it was 0.5 nM.
`Cc1cc(-c2nc(-c3cnn4ccccc34)nc(N(C)[C@@H]3CCCN(C(=O)CC#N)C3)c2F)ccn1` [Example 21, 3-{(3R)-3-[[5-fluoro-6-(2-methylpyridin-4-yl)-2-pyrazolo[1,5-a]pyridin-3-ylpyrimidin-4-yl](methyl)amino]piperidin-1-yl}-3-oxopropanenitrile]: the IC50 was found to be 6 nM on JAK1, 11 nM on JAK3 and 1 nM against JAK2.
Taken in the same sequence, the figures for `O=C(CO)N1CCC[C@@H](Nc2nc(-c3cnn4ccccc34)nc(N3CCC(O)CC3)c2F)C1` [Example 22, 1-(5-Fluoro-6-{[(3R)-1-glycoloylpiperidin-3-yl]amino}-2-pyrazolo[1,5-a]pyridin-3-ylpyrimidin-4-yl)piperidin-4-ol] were 7 nM, 4 nM and 0.7 nM.
Turning to `O=C(CO)N1CCC[C@@H](Nc2nc(-c3cnn4ccccc34)nc(N3CCC(CO)CC3)c2F)C1` [Example 23, 2-[(3R)-3-({5-Fluoro-6-[4-(hydroxymethyl)piperidin-1-yl]-2-pyrazolo[1,5-a]pyridin-3-ylpyrimidin-4-yl}amino)piperidin-1-yl]-2-oxoethanol], the IC50 against JAK1 was found to be 8 nM; at JAK3 it was 5 nM; against JAK2 it was 1 nM.
For the molecule `CN1CCN(c2nc(-c3cnn4ccccc34)nc(N[C@@H]3CCCN(C(=O)CO)C3)c2F)CC1` [Example 25, 2-((3R)-3-{[5-fluoro-6-(4-methylpiperazin-1-yl)-2-pyrazolo[1,5-a]pyridin-3-ylpyrimidin-4-yl]amino}piperidin-1-yl)-2-oxoethanol], the IC50 against JAK1 was determined as 22 nM; on JAK3 it was 2 nM; against JAK2, 0.6 nM.
Regarding `Cc1c(N[C@@H]2CCCN(C(=O)CO)C2)nc(-c2cnn3ccccc23)nc1N1CCOCC1` [Example 26, 2-{(3R)-3-[(5-Methyl-6-morpholin-4-yl-2-pyrazolo[1,5-a]pyridin-3-ylpyrimidin-4-yl)amino]piperidin-1-yl}-2-oxoethanol], the IC50 against JAK1 came to 26 nM; on JAK3 it was 30 nM; at JAK2, 4 nM.
In the case of `COCCOc1nc(-c2cnn3ccccc23)nc(N[C@@H]2CCCN(C(=O)CO)C2)c1C` [Example 27, 2-((3R)-3-{[6-(2-Methoxyethoxy)-5-methyl-2-pyrazolo[1,5-a]pyridin-3-ylpyrimidin-4-yl]amino}piperidin-1-yl)-2-oxoethanol], the IC50 against JAK1 was 19 nM; against JAK3, 3 nM; at JAK2 it was 0.7 nM.
Consider `CCOC(=O)C1(C)CCN(c2nc(-c3cnn4ccccc34)nc(N[C@@H]3CCCN(C(=O)CO)C3)c2F)CC1` [Example 28, Ethyl 1-(5-fluoro-6-{[(3R)-1-glycoloylpiperidin-3-yl]amino}-2-pyrazolo[1,5-a]pyridin-3-ylpyrimidin-4-yl)-4-methylpiperidine-4-carboxylate], for which the IC50 against JAK1 worked out at 5 nM; against JAK3 it was 3 nM; on JAK2, 0.8 nM.
For `Cc1ccn2ncc(-c3nc(N[C@@H]4CCCN(C(=O)CO)C4)c(F)c(N4CCOCC4)n3)c2c1` [Example 29, 2-((3R)-3-{[5-Fluoro-2-(5-methylpyrazolo[1,5-a]pyridin-3-yl)-6-morpholin-4-ylpyrimidin-4-yl]amino}piperidin-1-yl)-2-oxoethanol], the IC50 at JAK1 came out at 27 nM; against JAK3 it was 10 nM; against JAK2, 4 nM.
For the molecule `CCOC(=O)C1CCN(c2nc(-c3cnn4ccccc34)nc(N[C@@H]3CCCN(C(=O)CC#N)C3)c2F)CC1` [Example 30, Ethyl 1-(6-{[(3R)-1-(cyanoacetyl)piperidin-3-yl]amino}-5-fluoro-2-pyrazolo[1,5-a]pyridin-3-ylpyrimidin-4-yl)piperidine-4-carboxylate], the IC50 stood at 4 nM against JAK1, 2 nM against JAK3 and 0.6 nM at JAK2.
`N#CCC(=O)N1CCC[C@@H](Nc2nc(-c3cnn4ccccc34)nc(N3CCC(C(=O)O)CC3)c2F)C1` [Example 31, 1-(6-{[(3R)-1-(Cyanoacetyl)piperidin-3-yl]amino}-5-fluoro-2-pyrazolo[1,5-a]pyridin-3-ylpyrimidin-4-yl)piperidine-4-carboxylic acid]: the IC50 worked out at 1 nM against JAK1, 2 nM against JAK3 and 0.4 nM at JAK2.
Consider `O=C(CO)N1CCC[C@@H](Nc2nc(-c3cnn4ccccc34)nc(-c3cn[nH]c3)c2F)C1` [Example 32, 2-((3R)-3-{[5-Fluoro-2-pyrazolo[1,5-a]pyridin-3-yl-6-(1H-pyrazol-4-yl)pyrimidin-4-yl]amino}piperidin-1-yl)-2-oxoethanol], for which the IC50 on JAK1 was 2 nM; on JAK3, 4 nM; against JAK2, 0.6 nM.
In the same order, the values of `CC(C)(O)Cn1cc(-c2nc(-c3cnn4ccccc34)nc(N[C@@H]3CCCN(C(=O)CO)C3)c2F)cn1` [Example 33, 1-[4-(5-Fluoro-6-{[(3R)-1-glycoloylpiperidin-3-yl]amino}-2-pyrazolo[1,5-a]pyridin-3-ylpyrimidin-4-yl)-1H-pyrazol-1-yl]-2-methylpropan-2-ol] are 6 nM, 2 nM and 0.6 nM.
As to `Cc1cc(-c2nc(-c3cnn4ccccc34)nc(N[C@@H]3CCCN(C(=O)CO)C3)c2F)ccn1` [Example 34, 2-((3R)-3-{[5-Fluoro-6-(2-methylpyridin-4-yl)-2-pyrazolo[1,5-a]pyridin-3-ylpyrimidin-4-yl]amino}piperidin-1-yl)-2-oxoethanol], the IC50 against JAK1 came to 2 nM; against JAK3, 4 nM; at JAK2, 0.2 nM.
As to `Cc1ccc(-c2nc(-c3cnn4ccccc34)nc(N[C@@H]3CCCN(C(=O)CO)C3)c2F)cn1` [Example 36, 2-((3R)-3-{[5-Fluoro-6-(6-methylpyridin-3-yl)-2-pyrazolo[1,5-a]pyridin-3-ylpyrimidin-4-yl]amino}piperidin-1-yl)-2-oxoethanol], the IC50 was 2 nM on JAK1, 2 nM against JAK3 and 0.5 nM at JAK2.
With `O=C(CO)N1CCC[C@@H](Nc2nc(-c3cnn4ccccc34)nc(-c3ccnc(CO)c3)c2F)C1` [Example 37, 2-[(3R)-3-({5-Fluoro-6-[2-(hydroxymethyl)pyridin-4-yl]-2-pyrazolo[1,5-a]pyridin-3-ylpyrimidin-4-yl}amino)piperidin-1-yl]-2-oxoethanol], the IC50 came to 2 nM against JAK1, 7 nM on JAK3 and 1 nM against JAK2.
On to `CCOC(=O)c1ccc(-c2nc(-c3cnn4ccccc34)nc(N[C@@H]3CCCN(C(=O)CO)C3)c2F)cn1` [Example 38, Ethyl 5-(5-fluoro-6-{[(3R)-1-glycoloylpiperidin-3-yl]amino}-2-pyrazolo[1,5-a]pyridin-3-ylpyrimidin-4-yl)pyridine-2-carboxylate], for which the IC50 against JAK1 is 4 nM; at JAK3, 6 nM; at JAK2, 2 nM.
Taken in the same sequence, the figures for `COCCOc1nc(-c2cnn3ccccc23)nc(N[C@@H]2CCCN(C(=O)CO)C2)c1F` [Example 39, 2-((3R)-3-{[5-Fluoro-6-(2-methoxyethoxy)-2-pyrazolo[1,5-a]pyridin-3-ylpyrimidin-4-yl]amino}piperidin-1-yl)-2-oxoethanol] were 11 nM, 3 nM and 0.8 nM.
